The values that follow come from paper PMC7435673, “Synthesis of α-Aminophosphonic Acid Derivatives Through the Addition of O- and S-Nucleophiles to 2H-Azirines and Their Antiproliferative Effect on A549 Human Lung Adenocarcinoma Cells” (Molecules, 2020).

Where two headings read alike, the source gives them in different places. Where only a bound is given, the exact number is not on record here.

For orientation: melting point means the temperature of the solid-liquid transition.

In data set [1] the test system is human cancer cell line A549 (carcinomic human alveolar basal epithelial cells). The data set can be described thus: Cytotoxicity (antiproliferative) CCK-8 assay, A549. The note with it: for IC50: read-out: Cytotoxicity IC50 Lung A549; for toxicity toward A549 (in words): in vitro, CCK-8.
From the text: (§1) The cytotoxicity of the new α-aminophosphine oxide and phosphonate acetals 4 and 5, β-keto-α-aminophosphonate 6, aziridines 7, 10 and 14, and allylic α-aminophosphine oxides and phosphonates 8, 9, 11, 12, 15 and 16 was investigated in vitro by checking their antiproliferative activities against the human cancer cell line A549 (carcinomic human alveolar basal epithelial cells). […] In order to assess growth inhibition, cell counting kit (CCK-8) assay was employed. […] Likewise, healthy lung cells, such as MRC-5 non-malignant lung fibroblasts were tested to study the selectivity of the cytotoxicity [49].
(§2) All stock solutions of the investigated compounds were prepared by dissolving the powered materials in appropriate amounts of DMSO. The final concentration of DMSO never exceeded 5% (v/v) in reactions. The stock solution was stored at 5 °C until it was used.
(§3) Cells were cultured according to the supplier’s instructions. […] On day 2, compounds were added and samples were incubated for 48 h. […] The absorbance of each well was determined by an Automatic ELISA Reader System (Multiskan FC, Thermo Fisher Scientific, Waltham, MA, USA) at 450 nm wavelength.
Data set [2] has as its system Human colon carcinoma cell line (RKO). The data set can be described thus: Cytotoxicity (antiproliferative) CCK-8 assay, RKO. To be noted: for IC50: Homo sapiens, Colon carcinoma cell, 48 h, read-out: cytotoxicity value against human colon carcinoma cell line (RKO); for toxicity toward RKO (in words): in vitro, CCK-8. A general note: Tetrazolium assays rely on reduction of a dye to a coloured formazan, in cell work by metabolically active cells.
Method: Human colon carcinoma cell line (RKO) was also used to test the antiproliferative activity of some of our compounds. In order to assess growth inhibition, cell counting kit (CCK-8) assay was employed.
as §2
Cells were cultured according to the supplier’s instructions. Cells were seeded in 96-well plates at a density of 2–4 × 10^3 cells per well and incubated overnight in 0.1 mL of media supplied with 10% Fetal Bovine Serum (Lonza) in 5% CO2 incubator at 37 °C. On day 2, compounds were added and samples were incubated for 48 h. After treatment, 10 μL of cell counting kit-8 was added into each well for additional 2 h incubation at 37 °C. The absorbance of each well was determined by an Automatic ELISA Reader System (Multiskan FC, Thermo Fisher Scientific, Waltham, MA, USA) at 450 nm wavelength.

Data set [3] is described as follows: Cytotoxicity CCK-8 assay, MRC-5 (selectivity). To be noted: human, MRC-5 non-malignant lung fibroblasts.
From the text: as §1, §2, §3
A short description of data set [4]: in vitro. To be noted: human.
From the text: as §1, §2, §3
[5] abbreviates: CCK-8, 48 h incubation, concentration corresponding to 50% growth inhibition.

As for `C=C(Sc1ccc(F)cc1)C(N)P(=O)(c1ccccc1)c1ccccc1` (centres unmarked) [Compound 15c, [1-Amino-2-((4-fluorophenyl)thio)allyl]diphenylphosphine oxide], the IC50 in data set [1] (Homo sapiens, A549, 48 h) was found to be 0.1 ± 0.08 µM. Further, in data set [2], the IC50 was > 50 µM and the “toxicity toward RKO (in words)” value is reported as “do not exhibited any toxicity”. The IC50 at 48 h in data set [3] is > 50 µM.

`CCC(OC)(OC)C(N)P(=O)(c1ccccc1)c1ccccc1` (centres unmarked) [Compound 4b, (1-Amino-2,2-dimethoxybutyl)diphenylphosphine oxide]: the melting point is 96 to 97 °C. In addition, the IC50 in data set [1] (Homo sapiens, A549, 48 h) turned out to be 21.3 ± 0.22 µM. In addition, the IC50 at 48 h in data set [3] is > 50 µM.

On to `CCOC(C)(OCC)C(NS(=O)(=O)c1ccc(C)cc1)P(=O)(OCC)OCC` (centres unmarked) [Compound 5d, Diethyl [2,2-diethoxy-1-((4-methylphenyl)sulfonamido)propyl]phosphonate], for which the IC50 is 3.7 ± 0.49 µM in data set [1] (Homo sapiens, A549, 48 h) and > 50 µM in data set [4].

In the case of `COC(C)(OC)C(N)P(=O)(OC(C)C)OC(C)C` (centres unmarked) [Compound 4e, Diisopropyl (1-amino-2,2-dimethoxypropyl)phosphonate], the IC50 in data set [1] (setting [5]) came out at 4.6 ± 0.31 µM.

As for `C[C@@]1(Oc2ccccc2)N[C@H]1P(=O)(c1ccccc1)c1ccccc1` (relative stereo) [Compound 10a, [(2S*,3S*)-3-Methyl-3-phenoxyaziridin-2-yl]diphenylphosphine oxide], the melting point is 124 to 126 °C. Moreover, in data set [1] (Homo sapiens, A549, 48 h), the IC50 was 13.3 ± 1.69 µM. For the same compound, in data set [4], the IC50 at 48 h was > 50 µM.

In turn, `C=C(Sc1ccc(C)cc1)C(NS(=O)(=O)c1ccc(C)cc1)P(=O)(c1ccccc1)c1ccccc1` (centres unmarked) [Compound 16b, N-[1-(Diphenylphosphoryl)-2-(p-tolylthio)allyl]-4-methylbenzene-sulfonamide] yielded a melting point of 180 to 182 °C. For the same compound, the IC50 in data set [1] (Homo sapiens, A549, 48 h) was 2.1 ± 0.15 µM. For the same compound, the IC50 at 48 h in data set [3] was > 50 µM.

As to `C=C(Sc1ccc(C)cc1)C(N)P(=O)(c1ccccc1)c1ccccc1` (centres unmarked) [Compound 15b, [1-Amino-2-(p-tolylthio)allyl]diphenylphosphine oxide], the IC50 in data set [1] (Homo sapiens, A549, 48 h) came out at 5.1 ± 0.77 µM. Moreover, in data set [3], the IC50 at 48 h amounted to 14.9 ± 1.61 µM.

`CCOP(=O)(OCC)C(N)C(C)(OC)OC` (centres unmarked) [Compound 4f, Diethyl (1-amino-2,2-dimethoxypropyl)phosphonate]: in data set [1] (setting [5]), the IC50 was 1.3 ± 0.1 µM.

`COC(C)(OC)C(NS(=O)(=O)c1ccc(C)cc1)P(=O)(OC(C)C)OC(C)C` (centres unmarked) [Compound 5b, Diisopropyl [2,2-dimethoxy-1-((4-methylphenyl)sulfonamido)propyl]phosphonate]: the IC50 in data set [1] (Homo sapiens, A549, 48 h) came to 1.7 ± 0.3 µM. In addition, in data set [3], the IC50 at 48 h is > 50 µM.

For `C=C(Oc1ccccc1)C(NS(=O)(=O)c1ccc(C)cc1)P(=O)(OCC)OCC` (centres unmarked) [Compound 12a, Diethyl [1-((4-methylphenyl)sulfonamido)-2-phenoxyallyl]phosphonate], the melting point was 117 to 119 °C. In addition, in data set [1] (Homo sapiens, A549, 48 h), the IC50 is 4.8 ± 0.9 µM. For the same compound, the IC50 in data set [4] was > 50 µM.

For the compound `CC(=O)C(NS(=O)(=O)c1ccc(C)cc1)P(=O)(OC(C)C)OC(C)C` (centres unmarked) [Compound 6, Diisopropyl [1-((4-methylphenyl)sulfonamido)-2-oxopropyl]phosphonate], the melting point was 121 to 122 °C. For the same compound, the IC50 in data set [1] (Homo sapiens, A549, 48 h) is > 50 µM. The “toxicity toward A549 (in words)” value in data set [1] is “do not exhibited any toxicity”.

Regarding `CCOP(=O)(OCC)C(NS(=O)(=O)c1ccc(C)cc1)C(C)(OC)OC` (centres unmarked) [Compound 5c, Diethyl [2,2-dimethoxy-1-((4-methylphenyl)sulfonamido)propyl]phosphonate], the IC50 in data set [1] (Homo sapiens, A549, 48 h) was 4.5 ± 0.45 µM; in data set [4] it was > 50 µM.

As for `C=C(Sc1ccccc1)C(N)P(=O)(c1ccccc1)c1ccccc1` (centres unmarked) [Compound 15a, [1-Amino-2-(phenylthio)allyl]diphenylphosphine oxide], in data set [1] (Homo sapiens, A549, 48 h), the IC50 worked out at 2.6 ± 0.68 µM. For the same compound, in data set [2], the IC50 is > 50 µM and the “toxicity toward RKO (in words)” value is listed as “do not exhibited any toxicity”. This compound had an IC50 at 48 h in data set [3] of 15.9 ± 2.79 µM.

As for `CCOC(C)(OCC)C(N)P(=O)(c1ccccc1)c1ccccc1` (centres unmarked) [Compound 4d, (1-Amino-2,2-diethoxypropyl)diphenylphosphine oxide], the melting point fell in the range of 126 to 128 °C. For the same compound, in data set [1] (Homo sapiens, A549, 48 h), the IC50 came out at 9.6 ± 1.13 µM. Besides, the IC50 at 48 h in data set [3] was > 50 µM.

`COC(C)(OC)C(N)P(=O)(c1ccccc1)c1ccccc1` (centres unmarked) [Compound 4a, (1-Amino-2,2-dimethoxypropyl) diphenylphosphine oxide] yielded a melting point of 125 to 127 °C. For the same compound, in data set [1] (Homo sapiens, A549, 48 h), the IC50 came out at 4.4 ± 0.72 µM. Besides, in data set [2], the IC50 is > 50 µM and the “toxicity toward RKO (in words)” value is recorded as “do not exhibited any toxicity”. In addition, in data set [3], the IC50 at 48 h is > 50 µM.

For `C=C(Oc1ccc2ccccc2c1)C(N)P(=O)(c1ccccc1)c1ccccc1` (centres unmarked) [Compound 11b, [1-Amino-2-(naphyhalen-2-yloxy)allyl]diphenylphosphine oxide], in data set [1] (Homo sapiens, A549, 48 h), the IC50 stood at 2.7 ± 0.44 µM. Besides, the IC50 at 48 h in data set [3] was 33.6 ± 3.73 µM.

With `C=C(Sc1ccc(OC)cc1)C(N)P(=O)(c1ccccc1)c1ccccc1` (centres unmarked) [Compound 15d, [1-Amino-2-((4-methoxyphenyl)thio)allyl]diphenylphosphine oxide], the IC50 in data set [1] (Homo sapiens, A549, 48 h) turned out to be 2.6 ± 0.42 µM. Moreover, the IC50 at 48 h in data set [3] was > 50 µM.

The compound `C=C(Sc1ccccc1)C(NS(=O)(=O)c1ccc(C)cc1)P(=O)(c1ccccc1)c1ccccc1` (centres unmarked) [Compound 16a, N-[1-(Diphenylphosphoryl)-2-(phenylthio)allyl]-4-methylbenzenesulfonamide] gave a melting point of 199 to 201 °C. Besides, the IC50 in data set [1] (Homo sapiens, A549, 48 h) was found to be 1.2 ± 0.09 µM. Moreover, the IC50 at 48 h in data set [3] is > 50 µM.

`C=C(Oc1ccccc1)C(N)P(=O)(c1ccccc1)c1ccccc1` (centres unmarked) [Compound 11a, (1-Amino-2-phenoxyallyl)diphenylphosphine oxide]: in data set [1] (Homo sapiens, A549, 48 h), the IC50 amounted to 1.9 ± 0.13 µM. For the same compound, in data set [2], the IC50 was > 50 µM and the “toxicity toward RKO (in words)” value is “do not exhibited any toxicity”. For the same compound, the IC50 at 48 h in data set [3] is > 50 µM.

On to `C=C(Sc1ccccc1)C(N)P(=O)(OCC)OCC` (centres unmarked) [Compound 15e, Diethyl [1-amino-2-(phenylthio)allyl]phosphonate], for which, in data set [1] (setting [5]), the IC50 was determined as 7.2 ± 0.49 µM.

Turning to `C=C(OCC(F)(F)F)C(N)P(=O)(c1ccccc1)c1ccccc1` (centres unmarked) [Compound 8, [1-Amino-2-(2,2,2-trifluoroethoxy)allyl]diphenylphosphine oxide], the IC50 in data set [1] (Homo sapiens, A549, 48 h) is > 50 µM. For the same compound, the “toxicity toward A549 (in words)” value in data set [1] was “do not exhibited any toxicity effect”. The IC50 at 48 h in data set [3] was > 50 µM.

In the case of `COC(OC)(c1ccccc1)C(N)P(=O)(c1ccccc1)c1ccccc1` (centres unmarked) [Compound 4c, (1-Amino-2,2-dimethoxy-2-phenylethyl)diphenylphosphine oxide], the melting point was in the range of 113 to 115 °C. Further, the IC50 in data set [1] (Homo sapiens, A549, 48 h) turned out to be 16.1 ± 2.03 µM. Further, the IC50 at 48 h in data set [3] was > 50 µM.

Consider `C=C(OCC(F)(F)F)C(NS(=O)(=O)c1ccc(C)cc1)P(=O)(c1ccccc1)c1ccccc1` (centres unmarked) [Compound 9, N-[1-(Diphenylphosphoryl)-2-(2,2,2-trifluoroethoxy)allyl]-4-methylbenzenesulfonamide], for which the melting point fell in the range of 201 to 203 °C. Also, the IC50 in data set [1] (Homo sapiens, A549, 48 h) came to 3.5 ± 0.77 µM. Moreover, the IC50 at 48 h in data set [3] was > 50 µM.

Regarding `COC(C)(OC)C(NS(=O)(=O)c1ccc(C)cc1)P(=O)(c1ccccc1)c1ccccc1` (centres unmarked) [Compound 5a, N-[1-(Diphenylphosphoryl)-2,2-dimethoxypropyl]-4-methylbenzenesulfonamide], the melting point fell in the range of 205 to 207 °C. Besides, the IC50 in data set [1] (Homo sapiens, A549, 48 h) is 8.2 ± 0.23 µM. For the same compound, the IC50 at 48 h in data set [3] is > 50 µM.
